The nature of data set [1]: Lipophilicity, log P of the compound by shake-flask method. In kind it is physicochemical. The following applies: octanol/water.
The nature of data set [2]: (§1) AUC in Swiss Webster mouse at 0.3 mg/kg, po administered as cassette dosing. In kind it is ADME, organism-based, Plasma. On the set-up: dose 0.3 mg/kg, route oral. Particulars: Swiss Webster, plasma.
The nature of data set [3]: (§2) Cmax in Swiss Webster mouse at 0.3 mg/kg, po administered as cassette dosing. The following applies: Swiss Webster, in vivo. On the set-up: dose 0.3 mg/kg, route oral. The class given is ADME, organism-based.
Data set [4] is described as follows: (§3) Half life in Swiss Webster mouse at 0.3 mg/kg, po administered as cassette dosing. In kind it is ADME, organism-based. On the set-up: dose 0.3 mg/kg, route oral. Particulars: Swiss Webster, in vivo.
A short description of data set [5]: in vivo. The following applies: Swiss Webster, mouse, po, 0.3 mg/kg.
Data set [6] deals with Mus musculus. Described as §1. The following applies: in vivo. On the set-up: dose 0.3 mg/kg, route oral. The class given is ADME, organism-based, Plasma.
For data set [7], the system named is Mus musculus. The data set is described as §3. In kind it is ADME, organism-based. More on the design: dose 0.3 mg/kg, route oral. Particulars: in vivo.
The subject of data set [8] is Mus musculus. The description is as §2. The class given is ADME, organism-based. On the set-up: dose 0.3 mg/kg, route oral. Particulars: in vivo.
Data set [9] can be described thus: Cmax in Sprague-Dawley rat at 0.3 mg/kg, po administered as cassette dosing. The following applies: in vivo. More on the design: dose 0.3 mg/kg, route oral. In kind it is ADME, organism-based.
A short description of data set [10]: in vivo. The following applies: Sprague-Dawley, rat, po, 0.3 mg/kg.
The nature of data set [11]: AUC in Sprague-Dawley rat at 0.3 mg/kg, po administered as cassette dosing. In kind it is ADME, organism-based. More on the design: dose 0.3 mg/kg, route oral. The following applies: plasma.
Data set [12] can be described thus: Half life in Sprague-Dawley rat at 0.3 mg/kg, po administered as cassette dosing. On the set-up: dose 0.3 mg/kg, route oral. Particulars: in vivo. In kind it is ADME, organism-based.

Usually logP stands for the decadic logarithm of the partition coefficient of the neutral form, usually between octanol and water. One may read the AUC as the area under the concentration-time curve, a measure of exposure. By Cmax is commonly meant the maximum level reached in the sampled fluid or tissue. Broadly, the half-life is how long it takes for the measured level to halve. A lower half-life goes with rapid decline. The term Tmax denotes the time from dosing to the highest level. `CCC(C)C(=O)N1CCC(NC(=O)Nc2ccc(C(F)(F)F)cc2)CC1` (stereo not drawn) showed a logP in [1] of 3.83. The compound also gave an AUC in data set [2] of 3.29 µM·h. The compound also returned a Cmax in [3] of 320 nM. The compound further gave a half-life in data set [4] of 6 h. Further, the Tmax in the data set “in vivo [5]” was found to be 0.5 h.
As for `O=C(Nc1ccc(C(F)(F)F)cc1)NC1CCN(C(=O)CCC(F)(F)F)CC1`, the logP in data set [1] was 3.66.
As to `O=C(Nc1ccc(C(F)(F)F)cc1)NC1CCN(C(=O)C2CC2)CC1`, the logP in data set [1] stood at 3.18. Moreover, in data set [2], the AUC amounted to 24.6 µM·h. Further, in [3], the Cmax came to 960 nM. In data set [4], this compound gave a half-life of 17 h. Further, the Tmax in “in vivo [5]” turned out to be 6 h.
Take `CCC(C)C(=O)N1CCC(NC(=O)N[C@H]2CC[C@H](CC)CC2)CC1` (stereo partly drawn): the AUC with Mus musculus [6] was 0.037 µM·h. For the same compound, the Cmax in [3] stood at 5 nM. Also, the t1/2 in the data set on Mus musculus [7] was 12 h.
In data set [2], `CCC(C)C(=O)N1CCC(NC(=O)NC2CCCCCC2)CC1` (stereo not drawn) yielded an AUC of 0.075 µM·h. Moreover, the Cmax in data set [3] was found to be 3 nM. The half-life in data set [4] is 8.4 h. Moreover, the Tmax in the data set “in vivo [5]” was found to be 0.5 h.
As for `CS(=O)(=O)N1CCC(NC(=O)Nc2ccc(OC(F)(F)F)cc2)CC1`, the AUC in data set [2] came out at 5.3 µM·h. The compound also had a Cmax with Mus musculus [8] of 370 nM. The half-life in [4] is 15 h.
`CC[C@H](C)C(=O)N1CCC(NC(=O)Nc2ccc(C(F)(F)F)cc2)CC1`: the Cmax is 790 nM in data set [9] and 435 nM in data set [3]. In data set [1], this compound gave a logP of 3.84. Moreover, the Tmax in “in vivo [10]” and in the data set “in vivo [5]” was 1 h throughout. Besides, the AUC in [2] turned out to be 4.94 µM·h; in data set [11], 5.72 µM·h. Besides, the half-life in data set [4] was 5 h; in data set [12], 4.9 h.
The compound `CCS(=O)(=O)N1CCC(NC(=O)Nc2ccc(C(F)(F)F)cc2)CC1` returned a logP in data set [1] of 3.08.
Compound `CCC(C)C(=O)N1CCC(NC(=O)Nc2ccc(C(C)(C)C)cc2)CC1` (stereo not drawn) returned a logP in data set [1] of 5.12.
Turning to `CC(C)C(=O)N1CCC(NC(=O)Nc2ccc(OC(F)(F)F)cc2)CC1`, the figures for the Cmax in data set [9] and in data set [3] were 890 nM and 900 nM, respectively. Moreover, the Tmax worked out at 1 h in the data set “in vivo [10]” and 5 h in the data set “in vivo [5]”. In addition, the AUC in [2] is 19.5 µM·h; in data set [11], 12 µM·h. Moreover, the results for the half-life in data set [4] and in [12] were 9 h and 3.5 h, respectively.
The compound `CC(=O)N1CCC(NC(=O)NC23CC4CC(CC(C4)C2)C3)CC1` [AR9281] gave an AUC in data set [2] of 0.183 µM·h. The compound further came in with a Cmax in [3] of 30 nM.
In the case of `CC(=O)N1CCC(NC(=O)Nc2ccc(C(F)(F)F)cc2)CC1`, the logP in data set [1] came out at 2.74.
The compound `O=C(Nc1ccc(C(F)(F)F)cc1)NC1CCN(S(=O)(=O)CC(F)(F)F)CC1` showed a logP in data set [1] of 3.42. In addition, in data set [2], the AUC amounted to 4.27 µM·h. The peak level in data set [3] (Cmax) was 100 nM. The same compound had a half-life in [4] of 25 h. For the same compound, the Tmax in “in vivo [5]” is 8 h.
The like results for `O=C(Nc1ccc(C(F)(C(F)(F)F)C(F)(F)F)cc1)NC1CCN(C(=O)CC(F)(F)F)CC1` were, in that order, 4.89, 9.6 µM·h, 365 nM, 18.9 h and 8 h.
The like results for `CCCCS(=O)(=O)N1CCC(NC(=O)Nc2ccc(C(F)(F)F)cc2)CC1` were, in that order, 3.95, 0.245 µM·h, 30 nM, 7.4 h and 1 h.
On to `CC(C)CC(=O)N1CCC(NC(=O)Nc2ccc(C(F)(F)F)cc2)CC1`, for which the logP in data set [1] came out at 3.86.
As for `CC[C@H](C)C(=O)N1CCC(NC(=O)Nc2ccc(OC(F)(F)F)cc2)CC1`, the Cmax came to 297 nM in [9] and 195 nM in data set [3]. The compound further returned a logP in data set [1] of 3.97. The time to peak (Tmax) in “in vivo [10]” and in “in vivo [5]” was 4 h each time. Also, the AUC in data set [2] is 2.53 µM·h; in [11], 2.59 µM·h. Also, the values for the half-life in data set [4] and in data set [12] were 7.7 h and 4.2 h, respectively.
`CS(=O)(=O)N1CCC(NC(=O)Nc2ccc(C(F)(F)F)cc2)CC1` registered a logP in [1] of 2.94. In addition, in [2], the AUC came to 4.67 µM·h. For the same compound, the concentration in data set [3] peaked (Cmax) at 130 nM. The compound further gave a half-life in [4] of 22 h. Moreover, the Tmax in the data set “in vivo [5]” was found to be 8 h.
Compound `O=C(Nc1ccc(C(F)(F)F)cc1)NC1CCN(S(=O)(=O)C2CC2)CC1` yielded a logP in data set [1] of 3.39.
Turning to `CCC(C)C(=O)N1CCC(NC(=O)Nc2ccc(C(C)C)cc2)CC1` (stereo not drawn), the logP in data set [1] was found to be 4.21. The AUC in [2] was 0.2 µM·h. This compound registered a Cmax in data set [3] of 90 nM. Also, the Tmax in “in vivo [5]” is 0.5 h.
With `CCC(C)C(=O)N1CCC(NC(=O)Nc2ccc(C(F)(C(F)(F)F)C(F)(F)F)cc2)CC1` (stereo not drawn), the logP in [1] was found to be 4.96. This compound had an AUC in [2] of 1.6 µM·h. This compound displayed a Cmax in data set [3] of 135 nM. Besides, the half-life in data set [4] is 4.5 h. Also, the Tmax in the data set “in vivo [5]” turned out to be 2.5 h.
In the case of `CC(C)C(=O)N1CCC(NC(=O)Nc2ccc(C(F)(F)F)cc2)CC1`, the Cmax in data set [9] was 510 nM; in [3], 1160 nM. For the same compound, the Tmax in the data set “in vivo [10]” and in the data set “in vivo [5]” was 4 h each time. The results for the AUC in [2] and in [11] were 19.7 µM·h and 7.3 µM·h, respectively. For the same compound, the half-life in [4] is 6 h; in data set [12], 5.4 h.
Take `CC(C)S(=O)(=O)N1CCC(NC(=O)Nc2ccc(C(F)(F)F)cc2)CC1`: the logP in data set [1] was 3.39.
In turn, `CCCCS(=O)(=O)N1CCC(NC(=O)Nc2ccc(OC(F)(F)F)cc2)CC1` returned a logP in data set [1] of 4.13. This compound also yielded an AUC in [2] of 0.22 µM·h. The compound also came in with a Cmax in data set [3] of 65 nM. Besides, the half-life in data set [4] was 2 h. For the same compound, the Tmax in the data set “in vivo [5]” came out at 1.2 h.
`CCCS(=O)(=O)N1CCC(NC(=O)Nc2ccc(C(F)(F)F)cc2)CC1` showed a logP in data set [1] of 3.39.
In the case of `CCC(C)C(=O)N1CCC(NC(=O)Nc2ccc(OC(F)(F)F)cc2)CC1` (stereo not drawn), the logP in data set [1] is 3.98. In [2], the AUC was determined as 3.3 µM·h. This compound also showed a Cmax in data set [3] of 235 nM. Also, in data set [4], the half-life was 6 h. For the same compound, the Tmax in “in vivo [5]” amounted to 2 h.
As to `O=C(Nc1ccc(C(F)(F)F)cc1)NC1CCN(C(=O)CC(F)(F)F)CC1`, the logP in data set [1] was 3.99. Further, the AUC in data set [2] was 8.85 µM·h. In data set [3], this compound came in with a Cmax of 330 nM. The same compound had a half-life in data set [4] of 15.4 h. In “in vivo [5]”, the Tmax was 8 h.

Source of the values: ChEMBL document CHEMBL3351722, “Optimized inhibitors of soluble epoxide hydrolase improve in vitro target residence time and in vivo efficacy” (J Med Chem, 2014).
